Data reported in US11771660B2, “Flavonoid polyphenol drug self-emulsifying composition, preparation method therefor, pharmaceutical composition thereof and application thereof” (priority 2019, dated 2023).

Columns and labels:
[1] = Saturated solubility in oil phase and blank self-emulsifying concentrate; type: physicochemical; conditions: room temperature 24 hours
Experimental: They were placed at room temperature for 24 hours to observe whether the drug was precipitated. If no drug was precipitated, an appropriate amount of each phospholipid complex was added and operated in the same manner until the drug was precipitated. The supernatant was taken and centrifuged at 12000 r/min for 20 min. Then, the supernatant was taken and the saturated solubility of each flavonoid polyphenol drug-phospholipid complex in the oil phase and the blank self-emulsifying concentrate was determined by the preceding HPLC method.

[2] = Plasma pharmacokinetics after gavage in rats; type: in vivo, Sprague-Dawley rats; conditions: gavage 40 mg/kg
Experimental: Test group B: The self-emulsifying composition of baicalein encapsulating baicalein ingredient in Comparative Example 1 (hereinafter labeled OBA-SMEDDS) was administered.
Test group C: Baicalein ingredient (hereinafter labeled BA) was administered.
Sprague-Dawley rats (male, 200 g) were fed for one week before tests, forbidden to eat rather than drink the night before the tests, and supplied with water freely during the tests.
15 rats were randomly divided into three groups (test group A, test group B and test group C, separately), with 5 rats in each group. Gavage (2-3 mL) was provided at a dose of 40 mg/kg. 0.3 mL of blood was taken from the retro-orbital venous plexus at 5, 15, 30, 45, 60 and 75 min and 3, 6, 8, 10, 12 and 24 h after administration, placed in a pre-heparinized 1.5 mL conical centrifuge tube, and centrifuged at 4000 r/min for 15 min. The upper plasma was aspirated, stored in the refrigerator at −80° C., and thawed at normal temperature before determination.
Treatment of plasma samples: 100 μL of plasma was taken, placed in a 1.5 mL conical centrifuge tube, added with 10 μL of ascorbic acid (200 mg/mL), 20 μL of an internal standard solution (500 ng/ml) and 300 μL of methanol, vortexed for 60 s, and centrifuged at 12000 r/min for 10 min. Then, the supernatant was aspirated, placed in a centrifuge tube, concentrated through centrifugation to remove the solvent (40° C.), added with 200 μL of methanol:water (80:20) to be dissolved, vortexed for 30 s, and centrifuged at 12000 r/min for 5 min. 20 μL of the supernatant was injected and the plasma concentration was determined under the following chromatography conditions (liquid chromatography-mass spectrometry).
Chromatography column: Agilent ZORBAX SB C18 column (250 mm×4.6 mm, […]);
Column temperature: 25° C.;
Mobile phase (gradient elution, see Table 11): acetonitrile-0.1% formic acid as an eluent.
Electrospray ion source (ESI), positive ion mode, multiple reaction monitoring (MRM);
Other parameters: an atomizer pressure of 40 psi, a drying gas flowrate of 9 L/min, a drying gas temperature of 350° C., a capillary voltage of 4000V and a split ratio of 1:2.
MRM detection ion pair for quantification: baicalin [M+H]+ 447.0→271.1;

[3] = male, Sprague-Dawley, rat, po, baicalein in plasma

With `O=c1cc(-c2ccccc2)oc2cc(O)c(O)c(O)c12` [BA, baicalein] the “saturated solubility in the blank self-emulsifying concentrate (drug load of the self-emulsifying composition)” value ([1]; ethyl oleate:labraosol:transcutol HP 2:5:3) was 20 mg/g, the “saturated solubility in oil” value ([1]; oil phase ethyl oleate) was 0.3 mg/g and the “AUC (0-t)” value ([2]; baicalein in plasma) was 15864.8 µg·min/L. The “AUC (0-∞)” value ([2]; baicalein in plasma) was 15880.4 µg·min/L, the Cmax [2, 3] was 99.1 ± 42 ng/mL and the Tmax [2, 3] was 1.25 h. It also gave an MRT last ([2]; male, Sprague-Dawley, rat, po, baicalein in plasma, read-out: MRT (0-t) (converted)) of 4 h, an MRT inf ([2]; male, Sprague-Dawley, rat, po, baicalein in plasma, read-out: MRT (0-∞) (converted)) of 4.01 h and a bioavailability ([2]; male, Sprague-Dawley, rat, po, relative to baicalein ingredient, based on baicalein in plasma) of 100%.
